Results from patent publication US5783599A, “Methods of treating cancer and viral infections with 5-iodo-6-amino-and 5-iodo-6-nitroso-1 2-benzopyrones” (priority 1996, dated 1998).
Converted amounts (≈) assume the structure as drawn. “Also recorded” adds a separate entry of the source. Where two headings read alike, the source gives them in different places.

Experiments:
ADPRT [1] = target: T1, ADPRT (Bos taurus, UniProt P18493); settings: literature; cited from earlier work
HIV [2] = assay: Inhibition of syncytia formation by HIV in MT-2 cells; type: cell-based
HIV [3] = assay: Cytopathogenic effect of HIV on MT-2 cells; type: cell-based
[4] = Metabolic conversion in liver / intracellular oxidation and cell penetration
[5] = system: malignant cell proliferation; assay: Malignant cell proliferation / cytostatic activity in cell cultures, overall; type: cell-based; settings: for potency relative to 6-ABP: biological action spectrum
Text: (§1) In this study, the following cell lines were used. Cell line CG I, a non-tumorigenic hybrid of HeLa cells with normal human fibroblasts, and its is tumorigenic revertant counterpart, CG1 III, as described in Science, 215:252 (1982). These cells were obtained from UC Irvine. […] HEp-2 human epidermoid carcinoma cells were provided by Dr. L. Aurelian (University of Maryland). E-Ras cells were-obtained from University of Cincinnati and represent an endothelial cell line transfected with pSV2neo plasmid as described in Proc. Natl. Acad. Sci., 76:1373 (1979). This cell line contains several copies of the activated human Ha-ras oncogene.
Cells were seeded to 2 cm^2 wells of Falcon tissue culture plates at a density of 6000±650 cells per well. Inhibitors were added to the seeding suspensions from stock solutions of 100 mM 6-ABP in water or 50 mM 5-1-6-ABP in dimethylsulfoxide (DMSO). […] Growth media were Dulbeccos MEM (lines #1 and 2), and Dulbeccols Modified Eagle's Medium, containing 10% fetal bovine serum and penicillin (100 μg/ml) plus streptomycin (100 μg/ml). After incubation for 72 hours at 37° C. in a 5% CO2 humidified atmosphere, incorporation of [^3 H] deoxyadenosine (ICN, 18 Ci/mmol) into DNA was tested as follows: [^3 H] deoxyadenosine (450,000 dpm in 40 μl) of medium was added per well (each containing 600 μl of medium) and incubation at 37° C. was continued for 1 hour, followed by removal of the medium and rinsing of the wells 3 times with phosphate-buffered saline. Cells were then lysed in 500 μl of 0.06M NaOH and the acid precipitable radioactivity was determined.

14C cells = assay: DNA synthesis ([3H]deoxyadenosine incorporation) in 14C cells; type: cell-based; settings: Rattus norvegicus, 72 h, N=5, read-out: % Inhibition of DNA synthesis
Text: as §1
(§2) Cells were seeded to 2 cm^2 wells of Falcon tissue culture plates at a density of 6000±650 cells per well. Inhibitors were added to the seeding suspensions from stock solutions of 100 mM 6-ABP in water or 50 mM 5-1-6-ABP in dimethylsulfoxide (DMSO). […] Growth media were Dulbeccos MEM (lines #1 and 2), and Dulbeccols Modified Eagle's Medium, containing 10% fetal bovine serum and penicillin (100 μg/ml) plus streptomycin (100 μg/ml). […] Cells were then lysed in 500 μl of 0.06M NaOH and the acid precipitable radioactivity was determined.

Stability in solution = type: physicochemical
Text: 5-I-6-ABP, is a reasonably soluble molecule. It can form approximately 0. […] Such solution would be reasonably stable for use as an intravenous infusion formulation. The parenteral route of administration seems to be the most likely effective mode of administration against cancer or HIV infections at any stage of the disease. […] 5-I-6-ABP is most probably also effective for treatment of AIDS related Kaposi's sarcoma of inner organs. Properly formulated, it will also effect skin disorders. The color of the compound in the solid state depends on particle size. Large crystals are a very deep brown, small crystals, a medium brown, and when pulverized, the material in all cases is orange-colored.

CG1 I cells = assay: DNA synthesis ([3H]deoxyadenosine incorporation) in CG1 I cells; type: cell-based; settings: Homo sapiens, 72 h, N=5
Text: as §1, §2

Solubility = type: physicochemical; settings: 25° C.
Text: The color of the compound in the solid state depends on particle size. Large crystals are a very deep brown, small crystals, a medium brown, and when pulverized, the material in all cases is orange-colored.

CMV = CMV replication in infected cell culture; type: cell-based
HEp-2 cells = assay: DNA synthesis ([3H]deoxyadenosine incorporation) in HEp-2 cells; type: cell-based; settings: Homo sapiens, 72 h, N=5, read-out: % Inhibition of DNA synthesis
Text: as §1, §2

[6] = Passage of blood brain barrier; settings: in vivo
HIV [7] = assay: Anti-HIV activity, overall comparison with 6-ABP; type: cell-based
GC1 III cells = assay: DNA synthesis ([3H]deoxyadenosine incorporation) in CG1 III cells; type: cell-based; settings: Homo sapiens, 72 h, N=5
Text: as §1, §2

[8] = Toxicity after intraperitoneal administration; type: in vivo, rat
Method: Toxicological tests administering 5-I-6-ABP to mice were performed under the following conditions.
[…] […] […] In in vitro experiments, it was shown that at the concentration 100 mg/kg corresponding to 0.35 mM, the antiviral effect is maximal.

HIV [9] = assay: Cytopathogenic effect of HIV on AA-2 cells; type: cell-based
virus = assay: Antiviral effect in in vitro experiments at 0.35 mM; type: cell-based; settings: 100 mg/kg corresponding to 0.35 mM
HSV = HSV replication in infected cell culture; type: cell-based
Method: Herpes simplex virus (HSV) type 1 and 2 (F and G strains, respectively) were grown in HEp-2 cells and titered by plaque assay under liquid overlay as described in Proc. Natl. Acad. Sci., 83:2787 (1986). Virus titers for CMV are expressed as the highest dilution that causes 50% cytopathic effect (TCID50). Virus titers for HSV-1 and HSV-2 are expressed as […] per ml. HIV titers are expressed as syncytial forming units (SFU per ml), assayed on MT2 cells. Vero, HEp-2 or MRC-5 cells are exposed to various concentrations from 0.1 to 10 mM of 5-I-6-ABP in various time intervals before infecting them with HSV-1 or HSV-2 (5-10 PFU/cell). Virus titers are determined 24 hours later.

Rat-1 cells = assay: DNA synthesis ([3H]deoxyadenosine incorporation) in Rat-1 cells; type: cell-based; settings: 72 h, N=5
Text: as §1, §2

ADPRT [10] = target: T1, ADPRT; assay: Inhibition of ADPRT / binding to ADPRT (I50, Ki); type: biochemical
Text: Their biological action spectrum is nearly the same as that of 6-ABP, except that their potency is about 10-50 times greater. Such potency is particularly well documented in case of 5-I-6-ABP against malignant cell proliferation in cell cultures. […] This effectivity is 10-20 times higher than 6-ABP.
The 6-amino group of 5-I-6-ABP is rapidly oxidized intracellularly to 5-I-6-NOBP which, by binding to the Zn^2+ -finger domain of ADPRT, destabilizes the tightly chelated Zn^2+ by the oxidation of the thiol groups in the Zn^2+ finger polypeptide, thus ejecting Zn^2+. In this way, 5-I-6-ABP effectively inactivates the ADPR-forming activity of this protein and converts it to a DNA binding protein that reacts with "internal domains" of certain double stranded DNA (Biochemistry, 28:5670 (1989); Biochem. Biophys. Res. Commun., 167:842 (1990)). These DNA domains include abnormally replicating DNA structures in tumorigenic or proliferative cells and in viral DNAs, probably at the integration sites.

AA-2 or MT-2 cells = assay: Cell count and viability of AA-2 and MT-2 cells; type: cell-based, human; settings: for effect on cell proliferation: 0.1 mM 5-I-6-ABP
Method: The effects of 5-I-6-ABP treatment of AA-2 and MT-2 cells was directly analyzed by cell count and viability tests including cloning efficiency and trypan blue uptake. The AA2 or MT-2 cell culture having initial cell count per well 0.5×10^5 was submitted to treatment with 3 mM of 6-ABP and or with 0.1 mM of 5-I-6-ABP and compared to untreated cell culture. The cells were counted 4 days after the treatment with 5-I-6-ABP and 6-ABP.

HIV [11] = assay: HIV proliferation in human lymphoblasts; type: cell-based
Text: The HIV isolates used in these experiments are isolated from the blood of infected patients. After isolation, HIV infection is established in CEM cells, and these infected cells are used to produce a stock of HIV virus that is titered to measure the concentration of tissue culture infective doses (TCID).
The cells are placed in culture in medium containing IL-2, but in the absence of additional 5-I-6-ABP, and monitored at 6 days and 12 days for the production of HIV-p24 core antigen, or for measurements of particulate reverse transcriptase.
HIV p24 antigen is measured by ELISA, with a cutoff of 5 pgm/ml. Particulate reverse transcriptase is measured by centrifuging down free virus from tissue culture fluids, lysing HIV in a buffer containing detergent, magnesium, H3-labelled dTTP and poly rA.oligo dT primer, incubating for 1 hour, and measuring precipitable radioactivity, and is expressed as cpm per volume of HIV-containing medium.

E-Ras cells = assay: DNA synthesis ([3H]deoxyadenosine incorporation) in E-Ras cells; type: cell-based; settings: 72 h, N=5
Text: as §1, §2

other enzymes = assay: Specificity towards other enzymes
HIV [12] = assay: HIV replication by p24 formation (ELISA) in cell culture; type: cell-based
[13] = literature; cited from earlier work
human lymphoblasts = assay: Lymphoblast viability; type: cell-based
Method: The viability of lymphoblasts is measured by incubating the cells exposed to IL-2, HIV and to 6-ABP with H3-thymidine for 6 hours on the sixth day of culture and determining the amount of cpm incorporated per 100,000 cells placed in culture.

T1 sequence (P18493 whole entry): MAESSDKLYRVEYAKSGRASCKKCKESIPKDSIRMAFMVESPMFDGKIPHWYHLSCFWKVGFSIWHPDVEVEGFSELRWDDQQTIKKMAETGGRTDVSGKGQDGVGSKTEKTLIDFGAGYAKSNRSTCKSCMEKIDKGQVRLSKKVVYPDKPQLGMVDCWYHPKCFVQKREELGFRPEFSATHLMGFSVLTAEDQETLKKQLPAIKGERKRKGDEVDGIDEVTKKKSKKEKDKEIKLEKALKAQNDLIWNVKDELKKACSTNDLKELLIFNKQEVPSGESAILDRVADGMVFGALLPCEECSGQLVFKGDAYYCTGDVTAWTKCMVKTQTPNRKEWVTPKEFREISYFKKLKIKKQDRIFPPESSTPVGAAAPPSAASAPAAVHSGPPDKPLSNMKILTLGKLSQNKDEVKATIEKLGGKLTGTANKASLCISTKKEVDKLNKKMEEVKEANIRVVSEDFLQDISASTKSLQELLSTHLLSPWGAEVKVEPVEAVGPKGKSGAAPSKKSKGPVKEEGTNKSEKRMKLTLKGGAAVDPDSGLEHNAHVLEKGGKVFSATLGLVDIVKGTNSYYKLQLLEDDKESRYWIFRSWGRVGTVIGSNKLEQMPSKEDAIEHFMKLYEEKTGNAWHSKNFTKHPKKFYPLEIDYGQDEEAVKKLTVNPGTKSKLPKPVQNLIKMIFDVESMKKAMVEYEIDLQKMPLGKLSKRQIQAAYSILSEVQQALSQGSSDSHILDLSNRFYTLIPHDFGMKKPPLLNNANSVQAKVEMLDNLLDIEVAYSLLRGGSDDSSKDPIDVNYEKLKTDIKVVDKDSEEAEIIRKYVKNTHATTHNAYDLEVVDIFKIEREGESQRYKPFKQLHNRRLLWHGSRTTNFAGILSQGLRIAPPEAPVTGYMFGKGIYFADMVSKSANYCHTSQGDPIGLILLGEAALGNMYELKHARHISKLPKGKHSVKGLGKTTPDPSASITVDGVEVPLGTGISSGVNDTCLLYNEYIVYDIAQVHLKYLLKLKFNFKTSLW

O=c1ccc2ccccc2o1 [1,2-benzopyrone (coumarin), 1,2-benzopyrone]
ADPRT ligand (ADPRT [1]): inhibitory ligand

Nc1ccc2oc(=O)ccc2c1I [5-I-6-ABP, 5-iodo-6-amino-1,2-benzopyrone]
inhibition of syncytia formation (HIV [2]): complete | inhibition of syncytia formation relative to 3 mM 6-ABP (HIV [2]): only slightly less inhibitory | cytopathogenic effect of HIV, effectiveness relative to 6-ABP (HIV [3]): nearly as effective | cell penetration ([4]; most mammalian cells, pH 7.2-7.4): to a limited degree | intracellular oxidation at 6-amino position ([4]; to 5-I-6-NOBP): rapid oxidation | metabolic conversion in the liver ([4]; to 5-I-6-nitroBP, per os): rapid conversion in the liver | cellular toxicity of cytostatic effect [5]: do not involve cellular toxicity | replication of tumorigenic cell types ([5]; 6 cell lines, Table 1): profoundly inhibited | potency relative to 6-ABP ([5]; vs 6-ABP): 10-50 times | antitumor activity relative to 6-ABP ([5]; vs 6-ABP): at least 10 times | percent change in DNA synthesis versus control at 50 µM (14C cells; 5-I-6-ABP 0.05 mM): -69.2% | toxicity (General toxicity): completely nontoxic; also recorded: absence of toxicity | stability in water, ethanol and DMSO (Stability in solution; 25° C.): stable in all of these solvents | stability of aqueous solution (Stability in solution; about 0.4 mM in water, pH 7.2-7.9, room temperature): stable for months at room temperature | stability with respect to boiling water (Stability in solution; boiling water): stable with respect to boiling water | degraded (Stability in solution; water, kept in the dark, months at room temperature, read-out: decomposition in aqueous solution): < 0.1% | inhibition at 50 µM (CG1 I cells; 5-I-6-ABP 0.05 mM): -7.6% | solubility (Solubility; water, read-out: solubility in water (saturated)): 0.37 mM (≈ 106 µg/mL) | solubility (Solubility; organic solvent or mixture, DMSO, read-out: solubility in DMSO (saturated)): 1900 mM (≈ 545000 µg/mL) | solubility (Solubility; organic solvent or mixture, ethanol, read-out: solubility in ethanol (saturated)): 4.7 mM (≈ 1350 µg/mL) | CMV inhibition (CMV): specific, potent and non-toxic inhibitor; also recorded: effectively inhibits CMV growth | percent change in DNA synthesis vs control at 50 µM (HEp-2 cells; 5-I-6-ABP 0.05 mM): -52.4% | blood brain barrier passage [6]: appears to cross the blood brain barrier | anti-HIV activity (HIV [7]): specific, potent and non-toxic inhibitor; also recorded: highly effective against HIV | effectivity against HIV relative to 6-ABP (HIV [7]): 10-20 times | inhibition of HIV replication, reversibility (HIV [7]): temporary, reversible | inhibition at 50 µM (GC1 III cells; 5-I-6-ABP 0.05 mM): -64.4% | toxic effects, chronic ([8]; chronic administration, 100 and 500 mg/kg, several weeks): did not show any toxic effects | toxic effects, subacute ([8]; rats, i.p., 100 and 59 mg/kg in DMSO once a day, four days): no apparent toxic effects | cytopathogenic effect of HIV, effectiveness relative to 6-ABP (HIV [9]): nearly as effective | antiviral effect (virus): maximal | HSV inhibition (HSV): specific, potent and non-toxic inhibitor | effect of cell type on inhibitory effect (HSV; Vero, HEp-2 or MRC-5 cells, 0.1 to 10 mM): not affected by cell type | inhibition at 50 µM (Rat-1 cells; 5-I-6-ABP 0.05 mM): -35.6% | IC50 (ADPRT [10]): 19 µM | Ki (ADPRT [10]): 2 µM | inhibition of / binding to ADPRT (ADPRT [10]): potent inhibitor of ADPRT; also recorded: much tighter binding | times more potent than 6-ABP (on a concentration basis) (ADPRT [10]; vs non-iodinated 6-ABP): about 10 times | cytotoxicity (AA-2 or MT-2 cells): does not involve cytotoxicity | effect on cell proliferation (AA-2 or MT-2 cells; 3 mM 6-ABP, 4 days): inhibitory effect on cell proliferation | inhibition of HIV, duration (HIV [11]): temporary and reversible | inhibition at 50 µM (E-Ras cells; 5-I-6-ABP 0.05 mM): -81.8% | activation or inhibition of other enzymes (other enzymes): no other enzymes are activated or inhibited | p24 protein formation, effect relative to 3 mM 6-ABP (HIV [12]): nearly as effective | suppressing effect on p24 generation (HIV [12]): almost equivalent suppressing effect on p24 generation

O=Nc1ccc2oc(=O)ccc2c1I [5-I-6-NOBP, 5-iodo-6-nitroso-1,2-benzopyrone]
potency relative to 6-ABP ([5]; vs 6-ABP): 10-50 times | inhibition of / binding to ADPRT (ADPRT [10]): binds with high affinity to zinc-fingers of enzyme ADPRT; also recorded: potent inhibitor of ADPRT

O=c1ccc2c(I)c([N+](=O)[O-])ccc2o1 [5-I-6-nitro-NBP, 5-iodo-6-nitro-1,2-benzopyrone]
biochemical activity ([4]; nitro oxidation product formed in liver): inactive

Nc1ccc2oc(=O)ccc2c1 [6-ABP, 6-amino-1,2-benzopyrone, reference compound]
inhibition of syncytia formation (HIV [2]): complete | effectivity of 500 μM 6-ABP compared with 5-I-6-ABP ([5]; 500 μM 6-ABP vs 50 μM 5-I-6-ABP, vs 500 μM as printed): the same effectivity | sedative, hypnotic, hypothermal, antipyretic, hypotensive, adrenolytic action [13]: No significant action | cell damage or death (human lymphoblasts): without detectable cell damage or death | percent change in DNA synthesis versus control at 500 µM (14C cells; 6-ABP 0.5 mM): -53.3% | inhibition at 500 µM (CG1 I cells; 6-ABP 0.5 mM): -19.8% | percent change in DNA synthesis vs control at 500 µM (HEp-2 cells; 6-ABP 0.5 mM): -47.6% | inhibition at 500 µM (GC1 III cells; 6-ABP 0.5 mM): -37.5% | ADPRT ligand (ADPRT [1]): specifically bind to ADPRT | inhibition at 500 µM (Rat-1 cells; 6-ABP 0.5 mM): -30.5% | IC50 (ADPRT [10]): 125 µM | Ki (ADPRT [10]): 47 µM | cytotoxicity (AA-2 or MT-2 cells): does not involve cytotoxicity | effect on cell proliferation (AA-2 or MT-2 cells; 3 mM 6-ABP, 4 days): inhibitory effect on cell proliferation | toxic effects in viability test (AA-2 or MT-2 cells; 3 mM 6-ABP, 4 days): no evidence of toxic effects | inhibition at 500 µM (E-Ras cells; 6-ABP 0.5 mM): -69.5%
